This test concerns premature aging LMNA^G609G/G609G mice. The test is described as follows: Healthspan analysis of LMNA^G609G/G609G mice. In kind it is in vivo, mouse. The method, then:
In the step of analyzing the healthspan of LMNA^G609G/G609G mice, for chemical treatment in mice, 2 months old LMNA^G609G/G609G mice were used. They received an intraperitoneal injection (IP) twice a week until they reached the humane point. Different dosages were used for the injection, 50 mg/kg of CBD was identified as the optimal dosage with the greatest extend in healthspan of the treated mice. CBD was dissolved in 5% DMSO and 5% polyethylene glycol (PEG) in sterile saline and stored at −80° C. for up to 1 month.

Where [1] appears, read: 50 mg/kg CBD IP twice a week from 2 months old.

The structures appear in SMILES notation.

For the molecule `C=C(C)[C@@H]1CCC(C)=C[C@H]1c1c(O)cc(CCCCC)cc1O` [CBD, Cannabidiol], under setting [1], the “increase in maximum healthspan” value is 19.8% and the “increase in median healthspan” value amounted to 8%. Moreover, for the setting “50 mg/kg CBD twice a week from 2 months old”, the “increase of healthspan (FIG. 6b legend)” value was 11.2%. Besides, the “optimal dosage (greatest extend in healthspan)” value (IP twice a week, from 2 months old) is reported as 50 mg/kg.

These data come from US20220354805A1, “Cannabidiol (CBD) as Chemical for Treating Aging-related Degenerative Diseases and Promoting Health Aging” (Hemix Biotech Limited, priority 2021, published 2022).
